Test results: patent US20200339691A1, “PROTEINACEOUS MOLECULES AND USES THEREFOR” (priority 2018, published 2020)
Where a SMILES comes first, the peptide text is derived from it. The star is where a group is joined. Myristoyl = CCCCCCCCCCCCCC(=O)*

Assays:
[1] = system: MDA-MB-231 cells; type: cell-based, human; conditions: 50 μM peptide, 48 hours, n = 1;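 on COI, Live Single Cells (Cell Count): live means Hoechst-negative events among single cells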
Source text: (§1) Non-adherent cells were removed during the washing steps.

[2] = system: CD44^hiCD24^lo CSCs in MDA-MB-231 cells; experiment: FACS analysis of CD44^hiCD24^lo cancer stem cells in MDA-MB-231 cells treated with P1 analogues; type: cell-based, human; conditions: 50 μM peptide, 48 hours; for CD44^hiCD24^lo CSCs (%) / COI, Live Single CD44^hiCD24^lo CSCs (Cell Count): n = 1; for Average Inhibition of CSCs (%) / CD44^hiCD24^lo CSCs (%) Repeat 1 / CD44^hiCD24^lo CSCs (%) Repeat 2 / CD44^hiCD24^lo CSCs (%) Repeat 3: n = 3
Method: Analogues of P1 (Table 6) were designed and synthesized in accordance with the procedure of Example 5. The ability of these analogues to inhibit cancer stem cells was determined using FACS analysis on MDA-MB-231 cells, which constitutively contain approximately 90% CD44^hiCD24^lo cancer stem cells, treated with the peptides.
as §1

| SMILES | COI (Cell Count) [1] | COI, Live Single Cells (Cell Count) [1] | COI, Single (Cell Count) [1] | Total Cell Count [1] | Inhibition of CSCs (%) Repeat 1 [2] [%] | Inhibition of CSCs (%) Repeat 2 [2] [%] | Inhibition of CSCs (%) Repeat 3 [2] [%] | CD44^hiCD24^lo CSCs (%) [2] [%] | COI, Live Single CD44^hiCD24^lo CSCs (Cell Count) [2] | Average Inhibition of CSCs (%) [2] [%] | CD44^hiCD24^lo CSCs (%) Repeat 1 [2] [%] | CD44^hiCD24^lo CSCs (%) Repeat 2 [2] [%] | CD44^hiCD24^lo CSCs (%) Repeat 3 [2] [%] |
| --- | --- | --- | --- | --- | --- | --- | --- | --- | --- | --- | --- | --- | --- |
| CCCCCCCCCCCCCC(=O)N[C@@H](CC(C)C)C(=O)N[C@H](C(=O)N[C@@H](Cc1ccccc1)C(=O)N[C@H](C(=O)N[C@@H](Cc1c[nH]cn1)C(=O)N[C@@H](CCCNC(=N)N)C(=O)N[C@@H](CC(C)C)C(=O)N[C@@H](CCCNC(=N)N)C(=O)N[C@@H](CCCCN)C(=O)NCC(=O)N[C@@H](CCCNC(=N)N)C(=O)N[C@@H](CCSC)C(=O)N[C@@H](CCSC)C(=O)N[C@@H](CC(=O)O)C(=O)N[C@H](C(=O)N[C@@H](CCCCN)C(=O)N[C@@H](CCCCN)C(N)=O)C(C)C)[C@@H](C)CC)[C@@H](C)O [Peptide 2853815, Myristoyl-LTFIHRLRKGRMMDVKK-NH2] (Myristoyl-LTFIHRLRKGRMMDVKK-NH2) | 320 | 279 | 300 | 1114 | 6.67 | 7.21 | 8.72 | 71.33 | 199 | 7.53 | 83.65 | 83.25 | 81.91 |
| CCCCCCCCCCCCCC(=O)N[C@@H](CC(C)C)C(=O)N[C@H](C(=O)N[C@@H](Cc1ccccc1)C(=O)N[C@H](C(=O)N[C@@H](CC(C)C)C(=O)N[C@@H](CCCNC(=N)N)C(=O)N[C@@H](CC(C)C)C(=O)N[C@@H](CCCNC(=N)N)C(=O)N[C@@H](CCCCN)C(=O)NCC(=O)N[C@@H](CCCNC(=N)N)C(=O)N[C@@H](CCSC)C(=O)N[C@@H](CCSC)C(=O)N[C@@H](CC(=O)O)C(=O)N[C@H](C(=O)N[C@@H](CCCCN)C(=O)N[C@@H](CCCCN)C(N)=O)C(C)C)[C@@H](C)CC)[C@@H](C)O [Peptide 2853816, Myristoyl-LTFILRLRKGRMMDVKK-NH2] (Myristoyl-LTFILRLRKGRMMDVKK-NH2) | 160 | 96 | 130 | 1747 | 69.57 | 68.04 | 65.42 | 12.50 | 12 | 67.68 | 27.27 | 28.67 | 31.03 |
| CCCCCCCCCCCCCC(=O)N[C@@H](CC(C)C)C(=O)N[C@H](C(=O)N[C@@H](Cc1ccccc1)C(=O)N[C@H](C(=O)N[C@@H](Cc1ccccc1)C(=O)N[C@@H](CCC(=O)O)C(=O)N[C@@H](CC(C)C)C(=O)N[C@@H](CCCNC(=N)N)C(=O)N[C@@H](CCCCN)C(=O)NCC(=O)N[C@@H](CCCNC(=N)N)C(=O)N[C@@H](CCSC)C(=O)N[C@@H](CCSC)C(=O)N[C@@H](CC(=O)O)C(=O)N[C@H](C(=O)N[C@@H](CCCCN)C(=O)N[C@@H](CCCCN)C(N)=O)C(C)C)[C@@H](C)CC)[C@@H](C)O [Peptide 2853817, Myristoyl-LTFIFELRKGRMMDVKK-NH2] (Myristoyl-LTFIFELRKGRMMDVKK-NH2) | 511 | 407 | 463 | 899 | 88.00 | 91.08 | 82.27 | 13.76 | 56 | 87.12 | 10.75 | 8.00 | 15.91 |
| CCCCCCCCCCCCCC(=O)N[C@@H](CC(C)C)C(=O)N[C@H](C(=O)N[C@@H](Cc1ccccc1)C(=O)N[C@H](C(=O)N[C@@H](Cc1ccccc1)C(=O)N[C@H](C(=O)N[C@@H](CC(C)C)C(=O)N[C@@H](CCCNC(=N)N)C(=O)N[C@@H](CCCCN)C(=O)NCC(=O)N[C@@H](CCCNC(=N)N)C(=O)N[C@@H](CCSC)C(=O)N[C@@H](CCSC)C(=O)N[C@@H](CC(=O)O)C(=O)N[C@H](C(=O)N[C@@H](CCCCN)C(=O)N[C@@H](CCCCN)C(N)=O)C(C)C)C(C)C)[C@@H](C)CC)[C@@H](C)O [Peptide 2853818, Myristoyl-LTFIFVLRKGRMMDVKK-NH2] (Myristoyl-LTFIFVLRKGRMMDVKK-NH2) | 33 | 20 | 25 | 275 | 88.46 | 97.94 | 93.25 | 25.00 | 5 | 93.21 | 10.34 | 1.85 | 6.06 |
| CCCCCCCCCCCCCC(=O)N[C@@H](CC(C)C)C(=O)N[C@H](C(=O)N[C@@H](Cc1ccccc1)C(=O)N[C@H](C(=O)N[C@@H](Cc1ccccc1)C(=O)N[C@@H](CCCNC(=N)N)C(=O)N[C@@H](Cc1ccccc1)C(=O)N[C@@H](CCCNC(=N)N)C(=O)N[C@@H](CCCCN)C(=O)NCC(=O)N[C@@H](CCCNC(=N)N)C(=O)N[C@@H](CCSC)C(=O)N[C@@H](CCSC)C(=O)N[C@@H](CC(=O)O)C(=O)N[C@H](C(=O)N[C@@H](CCCCN)C(=O)N[C@@H](CCCCN)C(N)=O)C(C)C)[C@@H](C)CC)[C@@H](C)O [Peptide 2853819, Myristoyl-LTFIFRFRKGRMMDVKK-NH2] (Myristoyl-LTFIFRFRKGRMMDVKK-NH2) | 563 | 191 | 372 | 4572 | 98.02 | 89.55 | 93.19 | 2.62 | 5 | 93.59 | 1.78 | 9.38 | 6.11 |
